Data set [1] has as its system Bacillus amyloliquefaciens spores. It is filed as cell-based.
The subject of data set [2] is Bacillus anthracis Sterne spores. It is filed as cell-based. The settings on record: cotton/nylon fabric, 200, 80, or 40 ppm chlorine dioxide, 10 minutes.
The conditions of data set [3]: diprotic, cited from earlier work.

Structures are written as SMILES.

On to `[O][Cl+][O-]` [chlorine dioxide], for which the “presence of B. amyloliquefaciens spores after treatment” value in data set [1] is “significantly reduced but did not completely eliminate”. In addition, the “log reduction of B. anthracis Sterne spores” value in data set [2] was 7.50 log reduction.

For `N=C(N)S(=O)O` [FSA, Formamidinesulfinic acid], the pKa1 in data set [3] (first dissociation) is at most 2. Further, in data set [3] (second dissociation), the pKa2 is listed as about 9.

The record behind these values is patent US9517934B2, “Process for the generation of chlorine dioxide” (The United States of America as Represented by the …, priority 2013, dated 2016).
